Experimental data from patent publication US6423689B1, “Peptidyl calcium channel blockers” (Warner-Lambert Company, priority 1997, dated 2002).
*1 amine or outer side, *2 acyl side, *3 side chain or, on linkers, in order; H or OH if unused. Where a SMILES comes first, the peptide text is derived from it. The star is where a group is joined. Piperidide = C1CCN(*)CC1; CO = O=C([*:1])[*:2]; Bn = c1ccc(C*)cc1; OtBu = CC(C)(C)O*

Molecular target: T1, N-type Ca2+ channels in IMR-32 cells (Homo sapiens, UniProt Q00975)
T1 construct: host or cells: IMR-32 cells, differentiated with dibutyryl cAMP and bromodeoxyuridine
Experiment: Inhibition of N-type calcium flux in IMR-32 cells (Indo-1 fluorescence, nitrendipine present)
Format: cell-based
Details: for inhibition at 1 µM / inhibition at 10 µM: IMR-32; for IC50: IMR-32 cells, 5 μM nitrendipine, K+ depolarization
Procedure, shortened: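 Differentiated IMR-32 cells (7–13 days) were loaded with 5 μM Indo-1 AM, preincubated with compound for 10 min at 30° C, and depolarized with KCl/CaCl2 stimulation solution, with 5 μM nitrendipine blocking L-channels. Peak-minus-basal 400/490 nm emission ratio was plotted against drug concentration, and IC50 came from four-parameter logistic fits.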

T1 sequence (Q00975 whole entry): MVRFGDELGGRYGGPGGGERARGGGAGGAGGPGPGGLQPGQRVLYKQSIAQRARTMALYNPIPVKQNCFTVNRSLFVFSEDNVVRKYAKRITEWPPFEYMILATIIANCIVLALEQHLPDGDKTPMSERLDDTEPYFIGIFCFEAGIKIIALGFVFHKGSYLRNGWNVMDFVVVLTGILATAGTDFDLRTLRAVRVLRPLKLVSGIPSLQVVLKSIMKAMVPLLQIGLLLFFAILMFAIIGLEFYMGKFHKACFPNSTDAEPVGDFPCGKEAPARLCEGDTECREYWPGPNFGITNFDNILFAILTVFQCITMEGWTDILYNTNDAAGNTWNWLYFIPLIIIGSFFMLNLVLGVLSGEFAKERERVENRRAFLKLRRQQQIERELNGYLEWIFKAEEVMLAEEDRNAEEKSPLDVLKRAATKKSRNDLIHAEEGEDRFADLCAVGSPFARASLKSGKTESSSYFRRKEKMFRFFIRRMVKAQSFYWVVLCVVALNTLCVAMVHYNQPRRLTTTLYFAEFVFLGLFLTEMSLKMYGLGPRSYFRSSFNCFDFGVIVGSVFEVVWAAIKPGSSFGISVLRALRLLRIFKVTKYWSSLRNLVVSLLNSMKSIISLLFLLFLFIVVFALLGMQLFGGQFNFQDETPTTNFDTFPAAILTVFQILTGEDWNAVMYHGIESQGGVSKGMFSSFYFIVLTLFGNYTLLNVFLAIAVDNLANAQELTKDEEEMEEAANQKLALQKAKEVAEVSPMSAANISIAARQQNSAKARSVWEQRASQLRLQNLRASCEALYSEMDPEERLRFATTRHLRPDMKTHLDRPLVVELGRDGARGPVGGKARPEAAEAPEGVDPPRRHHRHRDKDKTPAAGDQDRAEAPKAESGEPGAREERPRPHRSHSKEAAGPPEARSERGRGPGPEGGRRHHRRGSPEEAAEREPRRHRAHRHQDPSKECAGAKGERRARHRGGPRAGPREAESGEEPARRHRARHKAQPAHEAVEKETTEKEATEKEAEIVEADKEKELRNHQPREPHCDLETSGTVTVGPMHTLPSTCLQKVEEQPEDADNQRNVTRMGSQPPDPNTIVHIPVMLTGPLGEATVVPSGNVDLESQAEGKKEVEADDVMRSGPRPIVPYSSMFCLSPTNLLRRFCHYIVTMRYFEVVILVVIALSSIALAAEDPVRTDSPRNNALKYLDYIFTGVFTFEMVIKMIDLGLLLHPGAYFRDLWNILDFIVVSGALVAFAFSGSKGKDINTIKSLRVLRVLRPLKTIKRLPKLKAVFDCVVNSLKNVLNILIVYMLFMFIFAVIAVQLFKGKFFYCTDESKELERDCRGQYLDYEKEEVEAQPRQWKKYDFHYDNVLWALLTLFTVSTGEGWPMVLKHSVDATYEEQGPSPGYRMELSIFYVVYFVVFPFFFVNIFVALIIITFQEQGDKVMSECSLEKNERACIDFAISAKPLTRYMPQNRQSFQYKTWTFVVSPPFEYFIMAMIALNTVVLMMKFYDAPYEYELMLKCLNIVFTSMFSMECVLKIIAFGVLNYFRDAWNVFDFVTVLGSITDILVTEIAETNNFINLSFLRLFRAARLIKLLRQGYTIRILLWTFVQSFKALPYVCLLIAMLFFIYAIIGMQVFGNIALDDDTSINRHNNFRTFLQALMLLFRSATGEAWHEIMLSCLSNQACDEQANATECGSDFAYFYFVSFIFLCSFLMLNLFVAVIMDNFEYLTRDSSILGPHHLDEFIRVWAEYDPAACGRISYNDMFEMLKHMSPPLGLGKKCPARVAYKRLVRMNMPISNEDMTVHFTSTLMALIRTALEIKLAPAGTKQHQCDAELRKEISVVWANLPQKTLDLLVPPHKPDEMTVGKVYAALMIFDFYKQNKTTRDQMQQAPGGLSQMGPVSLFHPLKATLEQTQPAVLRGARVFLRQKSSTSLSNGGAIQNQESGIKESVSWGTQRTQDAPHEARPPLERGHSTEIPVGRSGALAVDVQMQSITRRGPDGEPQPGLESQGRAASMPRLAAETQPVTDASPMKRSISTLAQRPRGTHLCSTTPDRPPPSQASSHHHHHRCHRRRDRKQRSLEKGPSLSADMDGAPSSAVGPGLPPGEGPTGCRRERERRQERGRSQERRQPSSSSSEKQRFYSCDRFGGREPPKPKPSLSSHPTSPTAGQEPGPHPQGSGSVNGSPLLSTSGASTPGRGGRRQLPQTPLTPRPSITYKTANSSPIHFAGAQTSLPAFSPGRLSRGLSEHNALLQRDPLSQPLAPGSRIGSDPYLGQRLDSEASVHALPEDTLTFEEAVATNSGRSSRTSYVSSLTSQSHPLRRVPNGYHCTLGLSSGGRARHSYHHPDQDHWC
T1 sequence (P54289 25-956 partner limits assumed): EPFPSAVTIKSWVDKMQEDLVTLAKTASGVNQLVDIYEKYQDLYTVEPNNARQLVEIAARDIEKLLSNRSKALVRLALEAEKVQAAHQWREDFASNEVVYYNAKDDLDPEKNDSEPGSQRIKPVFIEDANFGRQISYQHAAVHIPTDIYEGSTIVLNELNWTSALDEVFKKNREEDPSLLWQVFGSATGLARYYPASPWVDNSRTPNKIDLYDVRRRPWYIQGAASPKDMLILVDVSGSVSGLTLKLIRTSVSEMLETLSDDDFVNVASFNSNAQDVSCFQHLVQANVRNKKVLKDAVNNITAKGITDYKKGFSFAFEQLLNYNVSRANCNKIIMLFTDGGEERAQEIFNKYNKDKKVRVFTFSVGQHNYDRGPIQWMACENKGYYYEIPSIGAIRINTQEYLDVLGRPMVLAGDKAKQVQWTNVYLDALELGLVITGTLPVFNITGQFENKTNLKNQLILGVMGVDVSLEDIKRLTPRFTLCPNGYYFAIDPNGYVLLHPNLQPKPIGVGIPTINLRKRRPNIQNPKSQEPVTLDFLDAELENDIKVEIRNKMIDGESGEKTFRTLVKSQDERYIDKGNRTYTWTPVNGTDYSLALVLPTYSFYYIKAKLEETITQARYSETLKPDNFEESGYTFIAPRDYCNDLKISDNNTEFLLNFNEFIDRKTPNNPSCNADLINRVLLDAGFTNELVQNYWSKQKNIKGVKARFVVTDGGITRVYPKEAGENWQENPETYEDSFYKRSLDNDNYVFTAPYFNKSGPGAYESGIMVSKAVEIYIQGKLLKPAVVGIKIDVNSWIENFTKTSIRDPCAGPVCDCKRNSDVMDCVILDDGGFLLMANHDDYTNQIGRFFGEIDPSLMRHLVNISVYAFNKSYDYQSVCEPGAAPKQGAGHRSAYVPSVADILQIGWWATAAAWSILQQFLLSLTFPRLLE
T1 sequence (P54289 957-1103 partner limits assumed): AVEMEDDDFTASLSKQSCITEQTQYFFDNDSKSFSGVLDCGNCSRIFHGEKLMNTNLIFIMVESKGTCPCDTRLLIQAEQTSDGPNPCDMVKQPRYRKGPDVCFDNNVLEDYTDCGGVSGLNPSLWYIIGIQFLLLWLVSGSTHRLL
T1 sequence (P54284 whole entry partner): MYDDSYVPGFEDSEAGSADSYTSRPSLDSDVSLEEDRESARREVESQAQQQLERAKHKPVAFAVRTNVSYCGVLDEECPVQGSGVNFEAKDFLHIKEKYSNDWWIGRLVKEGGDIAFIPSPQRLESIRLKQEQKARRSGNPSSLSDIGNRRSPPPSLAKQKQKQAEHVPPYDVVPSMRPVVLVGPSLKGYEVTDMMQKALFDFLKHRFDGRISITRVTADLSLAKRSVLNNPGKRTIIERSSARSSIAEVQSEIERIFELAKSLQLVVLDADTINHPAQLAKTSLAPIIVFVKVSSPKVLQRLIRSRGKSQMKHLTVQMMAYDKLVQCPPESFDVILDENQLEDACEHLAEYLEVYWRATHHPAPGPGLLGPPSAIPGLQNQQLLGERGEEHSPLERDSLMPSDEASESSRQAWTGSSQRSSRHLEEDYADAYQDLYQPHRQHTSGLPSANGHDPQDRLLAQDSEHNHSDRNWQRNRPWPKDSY

| Compound | Inhibition of Calcium Flux in IMR-32 Cells % Inhibition at 1 μM [%] | IC50 [µM] | further results |
| --- | --- | --- | --- |
| CC(C)C[C@H](NC(=O)c1ccco1)C(=O)C[C@H](Cc1ccc(OCc2ccccc2)cc1)C(=O)OC(C)(C)C (relative stereo) [Example 90, [S-(R*,R*)]-2-(4-Benzyloxy-benzyl)-5-[(furan-2-carbonyl)-amino]-7-methyl-4-oxo-octanoic acid tert-butyl ester] | 37 |  | Inhibition of Calcium Flux in IMR-32 Cells % Inhibition at 10 μM: 83% |
| CC(C)CC(NC(=O)N1CCCCCC1)C(=O)NC(Cc1ccc(OCc2ccccc2)cc1)C(=O)NC(C)CNCC(C)N (stereo not shown) [Example 239, Azepane-1-carboxylic acid {1-[1-[2-(2-amino-propylamino)-1-methyl-ethylcarbamoyl]-2-(4-benzyloxy-phenyl)-ethylcarbamoyl]-3-methyl-butyl}-amide] |  |  | inhibition at 1 µM: 22%; inhibition at 10 µM: 23% |
| CC(C)C[C@H](NS(=O)(=O)c1ccc(F)cc1)C(=O)N[C@@H](Cc1ccc(OCc2ccccc2)cc1)C(=O)OC(C)(C)C (relative stereo) [Example 104, [S-(R*,R*)]-3-(4-Benzyloxy-phenyl)-2-[2-(4-fluoro-benzenesulfonylamino)-4-methyl-pentanoylamino]-propionic acid tert-butyl ester] | 35 |  |  |
| CC(C)C[C@H](NC(=O)N1CCCCCC1)C(=O)N[C@@H](Cc1ccc(OCc2ccccc2)cc1)C(=O)N1CCN(C)CC1 [Example 176, [S-(R*,R*)]-Azepane-1-carboxylic acid {1-[1-(4-benzyloxy-benzyl)-2-(4-methyl-piperazin-1-yl)-2-oxo-ethylcarbamoyl]-3-methyl-butyl}-amide] |  | 1.4 | inhibition at 1 µM: 38%; inhibition at 10 µM: 86% |
| CCOc1ccc(C(=O)N[C@@H](CC(C)C)C(=O)N[C@@H](Cc2ccc(OCc3ccccc3)cc2)C(=O)OC(C)(C)C)cc1 (relative stereo) [Example 91, [S-(R*,R*)]-3-(4-Benzyloxy-phenyl)-2-[2-(4-ethoxy-benzoylamino)-4-methyl-pentanoylamino]-propionic acid tert-butyl ester] | 34 |  | Inhibition of Calcium Flux in IMR-32 Cells % Inhibition at 10 μM: 48% |
| Cc1ccc(NC(=O)N[C@@H](CC(C)C)C(=O)N[C@@H](Cc2ccc(OCc3ccccc3)cc2)C(=O)OC(C)(C)C)cc1 (relative stereo) [Example 58, [S-(R*,R*)]-3-(4-Benzyloxy-phenyl)-2-[4-methyl-2-(3-p-tolyl-ureido)-pentanoylamino]propionic acid tert-butyl ester] | 52 |  | Inhibition of Calcium Flux in IMR-32 Cells % Inhibition at 10 μM: 35% |
| CCCCCCC(=O)N[C@@H](CC(C)C)C(=O)N[C@@H](Cc1ccc(OCc2ccccc2)cc1)C(=O)OC(C)(C)C (relative stereo) [Example 114, [S-(R*,R*)]-3-(4-Benzyloxy-phenyl)-2-(2-heptanoylamino-4-methyl-pentanoylamino)-propionic acid tert-butyl ester] |  |  | Inhibition of Calcium Flux in IMR-32 Cells % Inhibition at 10 μM: 66% |
| CC(C)C[C@H](NC(=O)Nc1ccc(Cl)c(C(F)(F)F)c1)C(=O)N[C@@H](Cc1ccc(OCc2ccccc2)cc1)C(=O)OC(C)(C)C (relative stereo) [Example 78, [S-(R*,R*)]-3-(4-Benzyloxy-phenyl)-2-{2-[3-(4-chloro-3-trifluoromethyl-phenyl)-ureido]-4-methyl-pentanoylamino}-propionic acid tert-butyl ester] | 24 |  |  |
| CC(C)C[C@H](NC(=O)N1CCCCCC1)C(=O)N[C@@H](Cc1ccc(OCc2ccccc2)cc1)C(=O)N1CCC(O)CC1 (relative stereo) [Example 235, [S-(R*,R*)]-Azepane-1-carboxylic acid {1-[1-(4-benzyloxy-benzyl)-2-(4-hydroxy-piperidin-1-yl)-2-oxo-ethylcarbamoyl]-3-methyl-butyl}-amide] | 20 |  | Inhibition of Calcium Flux in IMR-32 Cells % Inhibition at 10 μM: 64% |
| CC(C)C[C@H](NC(=O)N1CCCCCC1)C(=O)N[C@@H](Cc1ccc(OCc2ccccc2)cc1)C(=O)NC1CCNC1 (stereo partly drawn) [Example 258, [S-(R*,R*)]-Azepane-1-carboxylic acid {1-[2-(4-benzyloxy-phenyl)-1-(pyrrolidin-3-ylcarbamoyl)-ethylcarbamoyl]-3-methyl-butyl}-amide] |  | 3.6 |  |
| CC(C)C[C@H](NC(=O)N1CCCCCC1)C(=O)N[C@@H](Cc1ccc(OCc2ccccc2)cc1)C(=O)Nc1ccc(Br)cc1 (relative stereo) [Example 173, [S-(R*,R*)]-Azepane-1-carboxylic acid {1-[2-(4-benzyloxy-phenyl)-1-(4-bromophenylcarbamoyl)-ethylcarbamoyl]-3-methyl-butyl}-amide] |  | 0.28 |  |
| CC(C)C[C@H](NC(=O)N1CCCCCC1)C(=O)N[C@@H](Cc1ccc(OCc2ccccc2)cc1)C(=O)NCCNCc1ccccc1 [Example 252, [S-(R*,R*)]-Azepane-1-carboxylic acid {1-[1-(2-benzylamino-ethylcarbamoyl)-2-(4-benzyloxy-phenyl)-ethylcarbamoyl]-3-methyl-butyl}-amide] |  | 0.28 |  |
| CCCN1CCCC(NC(=O)C(Cc2ccc(OCc3ccccc3)cc2)NC(=O)C(CC(C)C)NC(=O)N2CCCCCC2)C1 (stereo not shown) [Example 195, Azepane-1-carboxylic acid {1-[2-(4-benzyloxy-phenyl)-1-(1-propyl-piperidin-3-ylcarbamoyl)-ethylcarbamoyl]-3-methyl-butyl}-amide] |  | 0.58 |  |
| CCOC(=O)c1ccc(NC(=O)N[C@@H](CC(C)C)C(=O)N[C@@H](Cc2ccc(OCc3ccccc3)cc2)C(=O)OC(C)(C)C)cc1 (relative stereo) [Example 77, [S-(R*,R*)]-4-(3-{1-[2-(4-Benzyloxy-phenyl)-1tert-butoxycarbonyl-ethylcarbamoyl]-3-methylbutyl}-ureido)-benzoic acid ethyl ester] | 22 |  |  |
| CC(C)C[C@H](NC(=O)NC(C)C)C(=O)N[C@@H](Cc1ccc(OCc2ccccc2)cc1)C(=O)OC(C)(C)C (relative stereo) [Example 87, [S-(R*,R*)]-3-(4-Benzyloxy-phenyl)-2-[2-(3-isopropyl-ureido)-4-methyl-pentanoylamino]-propionic acid tert-butyl ester] | 37 |  |  |
| CC(C)C[C@H](NC(=O)N1CCCCCC1)C(=O)N[C@@H](Cc1ccc(OCc2ccccc2)cc1)C(=O)NCCCN1CCCC1 [Example 268, [S-(R*,R*)]-Azepane-1-carboxylic acid {1-[2-(4-benzyloxy-phenyl)-1-(3-pyrrolidin-1-yl-propylcarbamoyl)-ethylcarbamoyl]-3-methyl-butyl}-amide] |  | 2.9 |  |
| COc1ccc(COc2ccc(C[C@H](NC(=O)[C@H](CC(C)C)NC(=O)N3CCCCCC3)C(=O)OC(C)(C)C)cc2)cc1 [Example 32, [S-(R*,R*)]-2-{2-[(Azepane-1-carbonyl)-amino]-4-methyl-pentanoylamino}-3-[4-(4-methoxy-benzyloxy)-phenyl]-propionic acid tert-butyl ester] |  | 0.82 | inhibition at 1 µM: 52%; inhibition at 10 µM: 86% |
| CC(C)C[C@H](NC(=O)N1CCCCC1)C(=O)N[C@@H](Cc1ccc(OCc2ccccc2)cc1)C(=O)OC(C)(C)C [Example 33, [S-(R*,R*)]-3-(4-Benzyloxy-phenyl)-2-{4-methyl-2-[(piperidine-1-carbonyl)-amino]-pentanoylamino}-propionic acid tert-butyl ester] ({Piperidide-CO}-Leu-Tyr(Bn)-OtBu) |  | 2.2 | inhibition at 1 µM: 48%; inhibition at 10 µM: 79% |
| CC(C)C[C@H](NC(=O)N1CCCCCC1)C(=O)N[C@@H](Cc1ccc(OCc2ccccc2)cc1)C(=O)NC1CC1 [Example 209, [S-(R*,R*)]-Azepane-1-carboxylic acid {1-[2-(4-benzyloxy-phenyl)-1-cyclopropylcarbamoyl-ethylcarbamoyl]-3-methyl-butyl}-amide] |  | 2.5 | inhibition at 1 µM: 27%; inhibition at 10 µM: 82% |
| CC(C)C[C@H](NC(=O)N1CCCCCC1)C(=O)N[C@@H](Cc1ccc(OCc2ccccc2)cc1)C(=O)NCC1CC1 [Example 206, [S-(R*,R*)]-Azepane-1-carboxylic acid {1-[2-(4-benzyloxy-phenyl)-1-(cyclopropylmethyl-carbamoyl)-ethylcarbamoyl]-3-methyl-butyl}-amide] |  | 1.7 | inhibition at 1 µM: 37%; inhibition at 10 µM: 87% |
| CC(C)CC(NC(=O)N1CCCCCC1)C(=O)NC(Cc1ccc(OCc2ccccc2)cc1)C(=O)NCC(O)CN (stereo not shown) [Example 219, Azepane-1-carboxylic acid {1-[1-(3-amino-2-hydroxy-propylcarbamoyl)-2-(4-benzyloxy-phenyl)-ethylcarbamoyl]-3-methyl-butyl}-amide] |  |  | inhibition at 1 µM: 6%; inhibition at 10 µM: 23% |
| CCCCCCNC(=O)[C@H](Cc1ccc(OCc2ccccc2)cc1)NC(=O)[C@H](CC(C)C)NC(=O)N1CCCCCC1 [Example 168, [S-(R*,R*)]-Azepane-1-carboxylic acid {1-[2-(4-benzyloxy-phenyl)-1-hexylcarbamoyl-ethylcarbamoyl]-3-methyl-butyl}-amide] |  | 0.68 |  |
| CSCC[C@H](NC(=O)N1CCCCCC1)C(=O)N[C@@H](Cc1ccc(OCc2ccccc2)cc1)C(=O)NC(C)(C)C [Example 155, [S-(R*,R*)]-Azepane1-carboxylic acid {1-[2-(4-benzyloxy-phenyl)-1-tert-butylcarbamoyl-ethylcarbamoyl]-3-methylsulfanyl-propyl}-amide] |  | 2.5 |  |
| CC(C)(C)NC(=O)[C@H](Cc1ccc(OCc2ccccc2)cc1)NC(=O)[C@H](Cc1ccc(O)cc1)NC(=O)N1CCCCCC1 [Example 160, [S-(R*,R*)]-Azepane-1-carboxylic acid [1-[2-(4-benzyloxy-phenyl)-1-tert-butylcarbamoyl-ethylcarbamoyl]-2-(4-hydroxy-phenyl)-ethyl]-amide] |  | 2.5 |  |
